Assay results from PubChem BioAssay (NCI).
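At the GI50, growth is halved. TGI is the concentration that stops growth completely.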

How the values were obtained:
Assay in all cases: inhibition of tumour cell growth, NCI panel, 384-well format
[1] = tested on: MDA-MB-468 breast
[2] = tested on: M14 melanoma
[3] = tested on: SK-OV-3 ovarian
[4] = tested on: HCT-15 colon
[5] = tested on: SN12C renal
[6] = tested on: MDA-MB-435 melanoma
[7] = tested on: NCI-H23 lung
[8] = tested on: MOLT-4 leukemia
[9] = tested on: OVCAR-5 ovarian
[10] = tested on: SK-MEL-5 melanoma
[11] = tested on: COLO 205 colon
[12] = tested on: A498 renal
[13] = tested on: NCI/ADR-RES ovarian
[14] = tested on: SNB-19 CNS
[15] = tested on: UACC-62 melanoma
[16] = tested on: NCI-H460 NSCLC
[17] = tested on: SR leukemia
[18] = tested on: IGROV1 ovarian
[19] = tested on: 786-0 renal
[20] = tested on: TK-10 renal
[21] = tested on: NCI-H522 lung
[22] = tested on: OVCAR-4 ovarian
[23] = tested on: SF-539 CNS
[24] = tested on: MCF7 breast
[25] = tested on: PC-3 prostate
[26] = tested on: CCRF-CEM leukemia
[27] = tested on: T-47D breast
[28] = tested on: A549 NSCLC
[29] = tested on: ACHN renal
[30] = tested on: HCC-2998 colon
[31] = tested on: NCI-H322M lung
[32] = tested on: HCT-116 colon
[33] = tested on: NCI-H226 lung
[34] = tested on: UACC-257 melanoma
[35] = tested on: HL-60(TB) leukemia
[36] = tested on: DU-145 prostate
[37] = tested on: OVCAR-8 ovarian
[38] = tested on: HOP-92 NSCLC
[39] = tested on: SW-620 colon
[40] = tested on: U251 glioblastoma
[41] = tested on: K-562 leukemia
[42] = tested on: RXF 393 renal
[43] = tested on: RPMI-8226 leukemia
[44] = tested on: LOX IMVI melanoma
[45] = tested on: HOP-62 NSCLC
[46] = tested on: SK-MEL-2 melanoma
[47] = tested on: KM12 colon
[48] = tested on: MDA-MB-231 breast
[49] = tested on: SF-268 CNS
[50] = tested on: SF-295 CNS
[51] = tested on: MALME-3M melanoma
[52] = tested on: BT-549 breast
[53] = tested on: HT29 colon
[54] = tested on: CAKI-1 renal
[55] = tested on: SK-MEL-28 melanoma
[56] = tested on: OVCAR-3 ovarian
[57] = tested on: UO-31 renal

Question: Which results are given for `C=Cc1c(C)c2cc3nc(cc4[nH]c(cc5nc(cc1[nH]2)C(C)=C5CCC(=O)O)c(CCC(=O)OC)c4C)[C@@]1(C)C3=CC=C(C(=O)OC)[C@H]1C(=O)OC`?
Answer: GI50 [1]: 0.75 µM; TGI [1]: 2.67 µM; GI50 [2]: 2.28 µM; TGI [2]: 5.23 µM; GI50 [3]: 1.92 µM; TGI [3]: 4.73 µM; GI50 [4]: 1.73 µM; TGI [4]: 3.32 µM; GI50 [5]: 2.88 µM; TGI [5]: 9.35 µM; GI50 [6]: 2.36 µM; TGI [6]: 5.48 µM; GI50 [7]: 0.333 µM; TGI [7]: 1.28 µM; GI50 [8]: 1.23 µM; TGI [8]: 2.49 µM; GI50 [9]: 2.49 µM; TGI [9]: 5.93 µM; GI50 [10]: 1.3 µM; TGI [10]: 2.68 µM; GI50 [11]: 2.45 µM; TGI [11]: 5.95 µM; GI50 [12]: 1.78 µM; TGI [12]: 4.06 µM; GI50 [13]: 1.91 µM; TGI [13]: 4.63 µM; GI50 [14]: 2.76 µM; TGI [14]: 9.04 µM; GI50 [15]: 1.88 µM; TGI [15]: 3.63 µM; GI50 [16]: 1.69 µM; TGI [16]: 3.26 µM; GI50 [17]: 0.579 µM; TGI [17]: 1.85 µM; GI50 [18]: 1.93 µM; TGI [18]: 4.73 µM; GI50 [19]: 2.26 µM; TGI [19]: 6.55 µM; GI50 [20]: 2.4 µM; TGI [20]: 6.19 µM; GI50 [21]: 1.33 µM; TGI [21]: 3.66 µM; GI50 [22]: 1.25 µM; TGI [22]: 3.61 µM; GI50 [23]: 1.65 µM; TGI [23]: 3.22 µM; GI50 [24]: 1.94 µM; TGI [24]: 5.76 µM; GI50 [25]: 1.93 µM; TGI [25]: 4.24 µM; GI50 [26]: 1.19 µM; TGI [26]: 2.71 µM; GI50 [27]: 0.999 µM; TGI [27]: 6.82 µM; GI50 [28]: 1.65 µM; TGI [28]: 4.09 µM; GI50 [29]: 2.46 µM; TGI [29]: 6.83 µM; GI50 [30]: 1.54 µM; TGI [30]: 3.11 µM; GI50 [31]: 1.88 µM; TGI [31]: 4.54 µM; GI50 [32]: 1.28 µM; TGI [32]: 2.77 µM; GI50 [33]: 1.48 µM; TGI [33]: 3.36 µM; GI50 [34]: 1.64 µM; TGI [34]: 3.87 µM; GI50 [35]: 1.87 µM; TGI [35]: 3.29 µM; GI50 [36]: 2.22 µM; TGI [36]: 5.49 µM; GI50 [37]: 2.09 µM; TGI [37]: 6.68 µM; GI50 [38]: 1.92 µM; TGI [38]: 4.32 µM; GI50 [39]: 3.22 µM; TGI [39]: 9.29 µM; GI50 [40]: 1.61 µM; TGI [40]: 3.97 µM; GI50 [41]: 1.03 µM; TGI [41]: 9.64 µM; GI50 [42]: 0.668 µM; TGI [42]: 2.56 µM; GI50 [43]: 1.5 µM; TGI [43]: 2.84 µM; GI50 [44]: 2.64 µM; TGI [44]: 4.81 µM; GI50 [45]: 1.7 µM; TGI [45]: 4.16 µM; GI50 [46]: 1.64 µM; TGI [46]: 3.33 µM; GI50 [47]: 1.76 µM; TGI [47]: 3.66 µM; GI50 [48]: 1.51 µM; TGI [48]: 4.38 µM; GI50 [49]: 1.94 µM; TGI [49]: 5.63 µM; GI50 [50]: 1.28 µM; TGI [50]: 2.94 µM; GI50 [51]: 1.66 µM; TGI [51]: 3.92 µM; GI50 [52]: 1.32 µM; TGI [52]: 3.3 µM; GI50 [53]: 1.98 µM; TGI [53]: 4.72 µM; GI50 [54]: 2.85 µM; TGI [54]: 7.69 µM; GI50 [55]: 1.98 µM; TGI [55]: 4.25 µM; GI50 [56]: 1.74 µM; TGI [56]: 3.41 µM; GI50 [57]: 2.33 µM; TGI [57]: 6.21 µM
